# Reference: paper PMC8635623, “A click chemistry approach to pleuromutilin derivatives, evaluation of anti-MRSA activity and elucidation of binding mode by surface plasmon resonance and molecular docking” (Journal of Enzyme Inhibition and Medicinal Chemistry, 2021)
# Like-named read-outs stand apart in the source and are kept apart here.
# Key:
# 50S ribosome = assay: SPR binding studies; set-up: species or system S. aureus; conditions: for Ka (association rate constant) / Kd (dissociation rate constant): PBST pH 7.4, compound immobilised, 50S ribosome 200-3200 nM
# Description: In order to gain some insight into the binding mode of the potent inhibitors, SPR experiments were performed. […] The response unit (RU) of surface resonance was compared to determine the different binding affinities between each compound and the 50S ribosome. The association rate constants (Ka) and dissociation rate constant (Kd) represent the rate of association and dissociation in the binding reaction, respectively. The equilibrium dissociation constant (KD) indicated the degree of dissociation of compounds and the 50S ribosome in the equilibrium state. Their binding curves during the experiment were shown in Figure 3, as well as the concentration gradient curves were shown in Figure SI 27–34.
# SPR biosensing experiments were performed at 4 °C using the bScreen LB 991 Label-free Microarray System (Berthold Technologies, Germany) and the photo-cross-linker sensor chip. The BIODOT™ AD-1520 Array Printer (BIODOT Inc., USA) was used for printing samples and control on the chip surface. A UV Spectroirradiator 1020 (Amersham Life Science, USA) was used for the photo-cross-linking reaction quickly after the array print.
# As described in the reference[32–34] with minor modifications, the ribosome of S. aureus were extracted and purified to obtain 50S ribosome. MRSA (ATCC 43300) was incubated overnight at 37 °C. The bacteria solution was inoculated into a new culture solution, and cells were collected at an OD600 = 1.5. The bacterial culture was centrifuged 3 times at 3,500 rpm using a TX-400 rotor at 4 °C for 30 min, and then the supernatant was discarded. Cells were washed twice with 10 mM Tris-HCl (pH = 7.5), and suspend the precipitate with buffer A (20 mM HEPES-HCl pH = 7.5, 100 mM NH4Cl, 21 mM Mg(OAc)2, 1 mM EDTA, 1 mM DTT). Cells were lysed by repeated (>3×) snap-freezing and thawing, then ultrasonic disintegration was performed. To remove cell debris, the crushed product was centrifuged at 20,000 rpm for 90 min at 4 °C.The lysate layered on 15 ml of a sucrose cushion (10 mM HEPES-HCl pH = 7.5, 500 mM KCl, 25 mM Mg(OAc)2, 1.1 M sucrose, 0.5 mM EDTA, 1 mM DTT) and centrifuged in the ultracentrifuge(Optima^TM TL 100) at 45,000 rpm using a type70Ti rotor at 4 °C for 15 h to obtain ribosomal particles. Pellet was resuspended in 3 ml of buffer E (10 mM HEPES-HCl pH = 7.5, 100 mM KCl, 1 mM Mg(OAc)2, 0.5 mM EDTA, 1 mM DTT), then layered on 9 ml of 7–30% sucrose gradient and ultracentrifuged at 17,100 rpm using a typeSW40Ti rotor at 4 °C for 15 h. The gradient was analysed on the AKTA explorer system. The fractions corresponding to 50S ribosome were collected and PEG 20000 was added to a final concentration of 4.5% w/v. Ribosomes were pelleted by centrifugation at 20,000 rpm for 12 min, the pellet was gently dissolved in 200 µL of storage buffer (10 mM HEPES-HCl pH = 7.5, 15 mM KCl, 60 mM NH4Cl, 10 mM Mg(OAc)2, 1 mM DTT) and then flash-frozen for storage at −80 °C.
# Dilute these compounds to a concentration of 10 mM with DMSO as the stationary phase printing working solution. After that, the printing working solution was printed on the sensor chip by the array printer, and each sample was printed four times repeatedly. Four groups of positive control dots (12 rapamycin dots, 3 in each corner) were printed on the four corners of the sensor chip respectively. The sample dots were dried in vacuum, and the sensor chip was quickly transferred to the UV spectroirradiator for a photo-cross-linking reaction. Subsequently, the sensor chip was washed with DMF, methanol, and water for 15 min in turn, followed by blowing dry under nitrogen, and then assembled with Flowcell Cover.
# The binding studies were performed with PBST running buffer (pH = 7.4, 0.1% Tween 20) at a constant flow rate of 0.5 µL/s in instrument. 50S Ribosome was diluted separately with PBST running buffer to 200 nM, 400 nM, 800 nM, 1600 nM and 3200 nM and injected consecutively for 600 s at associating stage, followed by running buffer for 360 s at each dissociating stage. […]
# MRSA ATCC 43300 [1] = assay: Constant concentration time-kill curves; format: cell-based, methicillin-resistant S. aureus; conditions: for time-kill kinetics result: 8 × MIC, cultured for 24 h; for concentration giving a bactericidal effect: time-kill, MRSA
# Description: The time-kill kinetic approach was used to investigate the anti-MRSA activity of compounds 50, 62 and 64. The experimental results were presented in graphic form in Figure 2. Compared with growth control, compounds 50 and 62 inhibited the reproduction of bacteria to a certain extent.
# The time-kill curve determination is an in vitro bactericidal kinetics model, which is used to study the sustained killing effect of bacteria within 24 h at a certain drug concentration. The bactericidal activity of compounds 50, 62 and 64 was determined by the time-kill curve as reported in our previous work[18]^,[22]. MRSA grown in MH broth were diluted to approximately 1 × 10^6 CFU/mL. […] 100 µL of samples were collected from the subculture inoculums before culture (0 h) and 3 h, 6 h, 9 h and 24 h after culture, and serially diluted 10-flod with sterile saline. The dilution of each gradient (25 µL) was uniformly suspended on the MH agar plates. The total bacterial CFU/mL on the plates were counted to calculate the bacterial colonies after up to 20 h of incubation at 37 °C. The results are represented by Mean ± SD, with the log10 CFU/mL of bacteria counts as the ordinate and time as the abscissa, the time-kill curves of different concentrations of compounds against MRSA were established respectively.
# S. aureus ATCC 29213 = assay: MIC/MBC by broth micro dilution; format: cell-based; conditions: Staphylococcus aureus; for MIC: ATCC29213, 37 °C, 24 h; for MBC: ATCC29213, lowest concentration reducing viable counts by 99.9%
# Description: (§1) All the synthesised 1,2,3-triazole linked pleuromutilin analogues were screened for in vitro antibacterial activities against methicillin-resistant S. aureus (ATCC 43300), S. aureus (ATCC 29213), and two clinical strains of S. aureus (AD3 and 144, isolated from Guangdong Province, China). The MICs and MBCs of the synthesised pleuromutilin derivatives along with pleuromutilin and tiamulin used as the reference antibacterial drugs, were determined by the broth micro dilution methods according to the Clinical and Laboratory Standards Institute (CLSI)[18].
# (§2) The MIC of these novel pleuromutilin derivatives against methicillin-resistant S. aureus (ATCC 43300), S. aureus (ATCC 29213), S. aureus (AD3) and S. aureus (144) were determined by using pleuromutilin and tiamulin as positive control. MIC values were determined by the broth micro dilution methods in accordance with the Clinical and Laboratory Standards Institute (2012). Stock solutions of these compounds were dissolved in methanol to make a stock solution with a concentration of 1280 µg/mL. The working solutions (640 µg/mL) were obtained by diluting stock solutions in sterile Mueller-Hinton (MH) broth. The bacterial solution and solutions of these compounds with a final concentration of 0.016–32 µg/mL were distributed into 96-well plates, with a total volume of 200 µL. Three parallel experiments for each compound concentration. The plates were incubated at 37 °C for 24 h.
# (§3) MBC values were determined according to CLSI (2003) and previously report with slightly modification[18]^,[28]^,[31]. After obtaining the MIC results, the 96-well plates were incubated at 37 °C for 24 h. 100 µL of the bacterial solution from the wells with no visible growth was inoculated on MH agar plates. The MH agar plates were incubated at 37 °C for colony count. The MBC was determined as the lowest concentration of compound, which reduces the viable counts for 99.9%.
# S. aureus 144 = assay: MIC/MBC by broth micro dilution; format: cell-based; conditions: Staphylococcus aureus, S. aureus 144 (clinical strain); for MIC: 37 °C, 24 h; for MBC: lowest concentration reducing viable counts by 99.9%
# Description: as §1, §2, §3
# S. aureus AD3 = assay: MIC/MBC by broth micro dilution; format: cell-based; conditions: Staphylococcus aureus, S. aureus AD3 (clinical strain); for MIC: 37 °C, 24 h; for MBC: lowest concentration reducing viable counts by 99.9%
# Description: as §1, §2, §3
# MRSA ATCC 43300 [2] = assay: MIC/MBC by broth micro dilution; format: cell-based, methicillin-resistant S. aureus; conditions: for MIC: 37 °C, 24 h; for MBC: lowest concentration reducing viable counts by 99.9%
# Description: as §1, §2, §3
# [3] = 4 °C, PBST pH 7.4, KD = Kd/Ka, read-out: KD (equilibrium dissociation constant)
# [4] = Staphylococcus aureus, read-out: MIC
Kd (50S ribosome; [3]),Ka (association rate constant) (50S ribosome; 4 °C),Kd (dissociation rate constant) (50S ribosome; 4 °C),MIC (S. aureus ATCC 29213),MIC (S. aureus 144),MIC (S. aureus AD3),MIC (MRSA ATCC 43300 [2]; [4]),Kd (50S ribosome; read-out: interaction intensity level for 50S ribosome (KD class)),MIC (MRSA ATCC 43300 [2]),Compound,time-kill kinetics result (MRSA ATCC 43300 [1]),concentration giving a bactericidal effect (MRSA ATCC 43300 [1]),MBC (S. aureus ATCC 29213),MBC (S. aureus 144),MBC (S. aureus AD3),MBC (MRSA ATCC 43300 [2]; Staphylococcus aureus),"MRSA killing, log10 CFU/mL reduction (MRSA ATCC 43300 [1]; 16 × MIC, after 3 h incubation)","bacterial growth inhibition, log10 CFU/mL reduction (MRSA ATCC 43300 [1]; 16 × MIC, at 24 h)"
0.0232 µM,170 M⁻¹ s⁻¹,3.93e-06 s⁻¹,1 µg/mL,4 µg/mL,2 µg/mL,1 µg/mL,,,"C=C[C@]1(C)C[C@@H](OC(=O)Cn2cc(CN3CCN(c4ccccc4C)CC3)nn2)[C@]2(C)[C@H](C)CC[C@]3(CCC(=O)[C@H]32)[C@@H](C)[C@@H]1O [Compound 50, 22-(2-(4-(4-(o-Tolyl)-piperazin-1-yl)-methyl)-1H-1,2,3-triazol-1-yl)-22-deoxy pleuromutilin]",relatively anti-MRSA bacteriostatic kinetics,higher than 4 × MIC,2 µg/mL,4 µg/mL,4 µg/mL,2 µg/mL,,
17.7 µM,734 M⁻¹ s⁻¹,0.013 s⁻¹,2 µg/mL,2 µg/mL,1 µg/mL,1 µg/mL,10 to 1000 µM,,"C=C[C@]1(C)C[C@@H](OC(=O)Cn2cc(CN3CCN(c4ccccc4[N+](=O)[O-])CC3)nn2)[C@]2(C)[C@H](C)CC[C@]3(CCC(=O)[C@H]32)[C@@H](C)[C@@H]1O [Compound 62, 22-(2-(4-(4-(2-Nitrophenyl)-piperazin-1-yl)-methyl)-1H-1,2,3-triazol-1-yl)-22-deoxy pleuromutilin]",relatively anti-MRSA bacteriostatic kinetics,higher than 4 × MIC,2 µg/mL,4 µg/mL,4 µg/mL,2 µg/mL,,
0.636 µM,1200 M⁻¹ s⁻¹,0.000764 s⁻¹,1 µg/mL,2 µg/mL,1 µg/mL,0.5 µg/mL,,0.5 µg/mL,"C=C[C@]1(C)C[C@@H](OC(=O)Cn2cc(CN3CCN(c4ccc([N+](=O)[O-])cc4)CC3)nn2)[C@]2(C)[C@H](C)CC[C@]3(CCC(=O)[C@H]32)[C@@H](C)[C@@H]1O [Compound 64, 22-(2-(4-(4-(4-Nitrophenyl)-piperazin-1-yl)-methyl)-1H-1,2,3-triazol-1-yl)-22-deoxy pleuromutilin]",,higher than 4 × MIC,2 µg/mL,4 µg/mL,4 µg/mL,1 µg/mL,2.21 log10 CFU/mL,4.49 log10 CFU/mL
